Test results published in patent US5962475A, “Substituted benzo(B)thiophene compounds having activity as selective estrogen receptor modulators” (Eli Lilly and Company, priority 1997, dated 1999).

Experiments:
[1] = tested on: ovariectomized (OVX) rats, uterus; assay: Uterine weight in ovariectomized rats, four day oral dosing; type: in vivo, Sprague Dawley rats; settings: for Uterine Weight (% inc. OVX): daily for 4 days, vs OVX control
Experimental: (§1) In the examples illustrating the methods, a post-menopausal model was used in which effects of different treatments upon various biological parameters were determined, including serum cholesterol concentration, uterine weight, estrogen receptor binding, uterine eosinophil peroxidase activity, MCF-7 cell proliferation, and bone density.
(§2) Seventy-five day old female Sprague Dawley rats (weight range of 200 to 225 g) were obtained from Charles River Laboratories (Portage, Mich.). The animals were either bilaterally ovariectomized (OVX) or exposed to a sham surgical procedure (Intact) at Charles River Laboratories, and then shipped after one week. Upon arrival, they were housed in metal hanging cages in groups of 3 or 4 per cage and had ad libi tum access to food (calcium content approximately 0.5%) and water for one week. Room temperature was maintained at 22.20°±1.70° C. with a minimum relative humidity of 40%. The photoperiod in the room was 12 hours light and 12 hours dark.
(§3) After a one week acclimation period (therefore, two weeks post-OVX), daily dosing with test compound was initiated. 17a-Ethynyl estradiol (EE2) (Sigma Chemical Co., St. Louis, Mo.), an orally available form of estrogen, or the test compound were given orally, unless otherwise stated, as a suspension in 1% carboxymethyl cellulose or dissolved in 20% β-cyclodextrin. Animals were dosed daily for 4 days. Following the dosing regimen, animals were weighed and anesthetized with a ketamine:xylazine (2:1, v:v) mixture. A blood sample was collected by cardiac puncture. The animals were then sacrificed by asphyxiation with CO2, the uterus was removed through a midline incision, and a wet uterine weight was determined.
(§4) Data presented in Table 1 below show comparative results among control ovariectomized rats, rats treated with EE2, and rats treated with certain compounds of the present invention. […] This uterine response to estrogen is well recognized in the art.
(§5) The data presented in Table 1 reflect the response of 5 or 6 rats per treatment.

serum cholesterol = assay: Serum cholesterol in ovariectomized rats, four day oral dosing; type: in vivo, Sprague Dawley rats; settings: for Serum Cholesterol (% decrease OVX): daily for 4 days, vs OVX control
Experimental: as §1, §2, §3
Blood samples were allowed to clot at room temperature for 2 hours, and serum was obtained following centrifugation for 10 minutes at 3000 rpm. Serum cholesterol was determined using a Boehringer Mannheim Diagnostics high performance cholesterol assay. Briefly the cholesterol was oxidized to cholest-4-en-3-one and hydrogen peroxide. The hydrogen peroxide was then reacted with phenol and 4-aminophenazone in the presence of peroxidase to produce a p-quinone imine dye, which was read spectrophotemetrically at 500 nm. Cholesterol concentration was then calculated against a standard curve. The entire assay was automated using a Biomek Automated Workstation.
as §4, §5

MCF-7 Estrogen Receptor = target: T1, MCF-7 Estrogen Receptor (Homo sapiens, UniProt P03372); assay: MCF-7 estrogen receptor binding assay, competition with tritiated 17β-estradiol
T1 construct: protein from MCF-7 lysates; endogenous in cells; host or cells: MCF-7 (lysate)
T1 sequence (P03372 1-595): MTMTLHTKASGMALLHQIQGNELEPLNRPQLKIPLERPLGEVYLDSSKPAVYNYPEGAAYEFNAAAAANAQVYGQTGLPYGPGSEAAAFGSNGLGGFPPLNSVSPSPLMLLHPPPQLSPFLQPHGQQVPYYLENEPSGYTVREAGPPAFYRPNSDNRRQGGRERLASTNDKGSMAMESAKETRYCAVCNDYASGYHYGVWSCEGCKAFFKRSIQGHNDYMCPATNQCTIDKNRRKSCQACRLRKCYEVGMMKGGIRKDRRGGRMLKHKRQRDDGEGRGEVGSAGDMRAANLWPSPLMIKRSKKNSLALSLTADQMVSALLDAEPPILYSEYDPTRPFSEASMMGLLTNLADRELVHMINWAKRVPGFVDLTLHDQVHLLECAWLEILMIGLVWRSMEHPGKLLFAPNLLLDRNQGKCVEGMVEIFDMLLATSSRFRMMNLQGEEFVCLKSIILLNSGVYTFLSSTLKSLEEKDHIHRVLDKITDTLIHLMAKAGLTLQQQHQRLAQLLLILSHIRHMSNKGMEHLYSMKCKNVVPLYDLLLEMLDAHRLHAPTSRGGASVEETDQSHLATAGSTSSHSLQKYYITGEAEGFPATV
Experimental: Binding was allowed to take place for 18 hours at 5-- C., followed by the addition of 0.07 mL of dextran/charcoal and centrifugation to remove non-bound radioligand. Aliquots of supernate containing bound radioligand were mixed with scintillant and counted. Relative binding affinity (RBA) was calculated as: [formula]

[2] = tested on: MCF-7 breast adenocarcinoma cells; assay: MCF-7 proliferation assay; type: cell-based; settings: Homo sapiens, MCF7; MCF-7 cells, tritiated thymidine pulse after 48 hours with compound; read-out: ED50 (the source's name)
Experimental: MCF-7 breast adenocarcinoma cells (ATCC HTB 22) were maintained in MEM (minimal essential medium, phenol red-free, Sigma, St. Louis, Mo.) supplemented with 10% fetal bovine serum (FBS) (V/V), L-glutamine (2 mM), sodium pyruvate (1 mM), HEPES {(N-[2-hydroxyethyl]piperazine-N'-[2-ethanesulfonic acid]10 mM}, non-essential amino acids and bovine insulin (1 μg/ml) (maintenance medium). Ten days prior to assay, MCF-7 cells were switched to maintenance medium supplemented with 10% dextran coated charcoal stripped fetal bovine serum (DCC-FBS) assay medium) in place of 10% FBS to deplete internal stores of steroids. MCF-7 cells were removed from maintenance flasks using cell dissociation medium (Ca++/Mg++ free HBSS (phenol red-free) supplemented with 10 mM HEPES and 2 mM EDTA). Cells were washed twice with assay medium and adjusted to 80,000 cells/ml. […] Serial dilutions of drugs or DMSO as a diluent control were prepared in assay medium and […] to triplicate microcultures followed by […] assay medium for a final volume of […]. After an additional 48 hours at 37° C. in a 5% CO2 humidified incubator, microcultures were pulsed with tritiated thymidine (1 uCi/well) for 4 hours. Cultures were terminated by freezing at -70° C. for 24 hours followed by thawing and harvesting of microcultures. Samples were counted by liquid scintillation.

[3] = tested on: uterine eosinophil peroxidase activity; assay: Uterine eosinophil peroxidase (EPO) assay in ovariectomized rats, four day dosing; type: in vivo, Sprague Dawley rats; design: Uterine EPO (Vmax): unit not given beside the values; settings: for Uterine EPO (Vmax): daily for 4 days
Experimental: as §1, §2, §3
Uteri were kept at 4° C. until time of enzymatic analysis. The uteri were then homogenized in 50 volumes of 50 mM Tris buffer (pH--8.0) containing 0.005% Triton X-100. Upon addition of 0.01% hydrogen peroxide and 10 mM o-phenylenediamine (final concentrations) in Tris buffer, increase in absorbance was monitored for one minute at 450 nm. The presence of eosinophils in the uterus, as measured by assay of eosinophil peroxidase activity, is an indication of estrogenic activity of a compound. The maximal velocity of a 15 second interval was determined over the initial, linear portion of the reaction curve.
As is expressed in the data below, estrogenicity also was assessed by evaluating the adverse response of eosinophil infiltration into the uterus.
as §5

Row | SMILES | Uterine Weight (% inc. OVX) ([1]; 0.1 mg/kg PO) [%] | Uterine Weight (% inc. OVX) ([1]; 1 mg/kg PO) [%] | Uterine Weight (% inc. OVX) ([1]; 10 mg/kg PO) [%] | Serum Cholesterol (% decrease OVX) (serum cholesterol; 0.1 mg/kg PO) [%] | Serum Cholesterol (% decrease OVX) (serum cholesterol; 1 mg/kg PO) [%] | Serum Cholesterol (% decrease OVX) (serum cholesterol; 10 mg/kg PO) [%] | Relative binding affinity (RBA) (MCF-7 Estrogen Receptor) | IC50 [2] [nM] | Uterine EPO (Vmax) ([3]; 0.1 mg/kg PO) | Uterine EPO (Vmax) ([3]; 1 mg/kg PO) | Uterine EPO (Vmax) ([3]; 10 mg/kg PO) | action on the uterus / uterine weight, in words ([1]; orally, 0.1 mg/Kg/day) | serum cholesterol, in words (serum cholesterol; orally, 0.1 mg/Kg/day) | eosinophil infiltration into the uterus, in words ([3]; ovariectomized rats, by assay of eosinophil peroxidase activity)
1 | COc1ccc(-c2sc3cc(OC)ccc3c2C(=O)c2ccc(S(=O)(=O)CCN3CCCCC3)cc2)cc1 [Example 7, 6-methoxy-2-(4-methoxyphenyl)-3-[4-(2-(piperidin-1-yl)ethylsulfonyl)benzoyl]benzo[b]thiophene] | 26.4 | 18.6 | 48.4 | -4.4 | 12.0 | 28.7 | < 0.002 | 1000 | 7.5 | 4.8 | 8.4 |  |  | 
2 | CN(CCN1CCCCC1)c1ccc(C(=O)c2c(-c3ccc(O)cc3)sc3cc(O)ccc23)cc1 [Example 6, 6-hydroxy-2-(4-hydroxyphenyl)-3-[4-(N-methyl-N-2-(piperidin-1-yl)ethylamino)benzoyl]-benzo[b]thiophene] | 17.1 | 45.4 | 43.0 | 4.7 | 42.0 | 65.1 | 0.19 | 10 | 4.5 | 3.3 | 6.0 |  |  | 
3 | O=C(c1ccc(NCCN2CCCCC2)cc1)c1c(-c2ccc(O)cc2)sc2cc(O)ccc12 [Example 2] | -5.0 | 15.8 | 35.6 | -0.5 | 13.6 | 42.4 |  | 2 | 1.8 | 2.4 | 2.1 |  |  | 
4 | C#C[C@]1(O)CC[C@H]2[C@@H]3CCc4cc(O)ccc4[C@H]3CC[C@@]21C [Ethynyl estradiol, 17a-Ethynyl estradiol, reference compound] | 144.1 |  |  | 80.3 |  |  |  |  | 123.9 |  |  | marked stimulatory action on the uterus | decrease in serum cholesterol | substantial, expected increase in eosinophil infiltration
5 | O=C(c1ccc(S(=O)(=O)CCN2CCCCC2)cc1)c1c(-c2ccc(O)cc2)sc2cc(O)ccc12 [Example 8, 6-hydroxy-2-(4-hydroxyphenyl)-3-[4-(2-(piperidin-1-yl)ethylsulfonyl)benzoyl]benzo[b]thiophene] | 16.2 | 66.9 | 75.0 | -23.3 | 17.2 | 62.3 |  | 30 | 4.8 | 13.5 | 23.1 |  |  | 
6 | O=C(c1ccc(SCCN2CCCCC2)cc1)c1c(-c2ccc(O)cc2)sc2cc(O)ccc12 [Example 4, 6-hydroxy-2-(4-hydroxyphenyl)-3-[4-(2-(piperidin-1-yl)ethylthio)benzoyl]-benzo[b]thiophene] | 3.5 | 23.1 | 16.7 | -16.6 | 37.5 | 47.5 |  | 0.9 | 3.3 | 1.2 | 1.8 |  |  | 
